{
  "source": "patent US20060105361A1",
  "about": "“Donor yeast strain for transfer of genetic material” (priority 2004, published 2006)",
  "tested_on": "wild-type strains",
  "assay": "Spot tests of yeast strains on SD-leu plates containing camptothecin and CuSO4",
  "assay_type": "cell-based, Saccharomyces cerevisiae",
  "description": "The mutant and wild-type TOP1 were cloned under the control of the copper-inducible CUP1 promoter. These plasmids were transformed into the MATa universal donor strain (J1361), the MATalpha deletion library wild-type strain (BY4742) and rad9 and rad50 deletion strains from the library. Transformation reactions were plated on SD-leu media and incubated for 3 days at 30° C. to allow colony growth. […] B. Transformants from A were grown overnight in liquid SD-leu media, equalized by OD, serially diluted and spotted onto SD-leu plates containing the indicated concentrations of CuSO4. Each panel is a group of three strains containing the vector, TOP1 or TOP1-T722A plasmids as indicated on the right. […] Spot tests shown at the bottom contain 5 μg/ml camptothecin.",
  "data": [
    {"smiles": "CC[C@@]1(O)C(=O)OCc2c1cc1n(c2=O)Cc2cc3ccccc3nc2-1", "note": "[camptothecin]", "values": [
      {"measurement": "sensitivity (viability in spot test) of strains containing the TOP1-T722A plasmid", "setting": "5 μg/ml camptothecin, wild-type cells with CUP1-promoter TOP1-T722A plasmid, graded CuSO4", "result": "roughly additive effect of the TOP1-T722A mutant in conjunction with camptothecin"},
      {"measurement": "sensitivity (viability in spot test) of strains containing the TOP1 plasmid", "setting": "5 μg/ml camptothecin, wild-type strain (BY4742) with CUP1-promoter TOP1 plasmid, graded CuSO4", "result": "only sensitive to the drug when Top1 is overexpressed by 100 μM copper"},
      {"measurement": "viability of the library strain on plates containing camptothecin", "setting": "library strain is TOP1, relatively low doses of drug, no TOP1 overexpression", "result": "do not affect viability"}
    ]}
  ]
}
